Like-named read-outs stand apart in the source and are kept apart here.
Legend:
[1] = test system: SARS-CoV-2 strain USA-WA1/2020; experiment: microbe, parasite or virus in culture; type: cell-based; conditions: HeLa-ACE2 cells, SARS-CoV-2 infection, 24 h, read-out: EC50, uM (Hela)
[2] = test system: hospitalized COVID-19 patients; conditions: large multi-center trial; cited from earlier work
COVID-2 M^pro protease = COVID-2 M^pro protease (Severe acute respiratory syndrome coronavirus 2, UniProt P0DTD1); conditions: cell and enzyme assays; cited from earlier work
[3] = Severe acute respiratory syndrome coronavirus 2, HeLa-ACE2, 24 h

O=C1NCC[C@H]1C[C@H](NC(=O)[C@@H]1[C@H]2CCC[C@H]2CN1C(=O)c1noc2cc(Cl)ccc12)C(=O)COC(F)(F)F [Compound 783, (1S,3aR,6aS)-2-(6-chlorobenzo[d]isoxazole-3-carbonyl)-N-((S)-3-oxo-1-((S)-2-oxopyrrolidin-3-yl)-4-(trifluoromethoxy)butan-2-yl)octahydrocyclopenta[c]pyrrole-1-carboxamide]
EC50 [1, 3]: < 0.05 µM

O=C1NCC[C@H]1C[C@H](NC(=O)[C@@H]1C[C@@H](C(F)(F)F)CN1C(=O)[C@@H](O)c1ccccc1)C(=O)COC(F)(F)F [Compound 785, (2S,4R)-1-((S)-2-hydroxy-2-phenylacetyl)-N-((S)-3-oxo-1-((S)-2-oxopyrrolidin-3-yl)-4-(trifluoromethoxy)butan-2-yl)-4-(trifluoromethyl)pyrrolidine-2-carboxamide]
EC50 [1, 3]: 0.05 to 0.2 µM

O=C1NCC[C@H]1C[C@H](NC(=O)[C@@H]1C[C@@H](c2ccccc2)CN1C(=O)[C@H](O)c1ccccc1)C(=O)COC(F)(F)F [Compound 786, (2S,4S)-1-((R)-2-hydroxy-2-phenylacetyl)-N-((S)-3-oxo-1-((S)-2-oxopyrrolidin-3-yl)-4-(trifluoromethoxy)butan-2-yl)-4-phenylpyrrolidine-2-carboxamide]
EC50 [1, 3]: 0.05 to 0.2 µM

CC(C)C[C@@H](O)C(=O)N1[C@H](C(=O)N[C@@H](C[C@@H]2CCNC2=O)C(=O)COC(F)(F)F)CCC1(C)C [Compound 787, (S)-1-((R)-2-hydroxy-4-methylpentanoyl)-5,5-dimethyl-N-((S)-3-oxo-1-((S)-2-oxopyrrolidin-3-yl)-4-(trifluoromethoxy)butan-2-yl)pyrrolidine-2-carboxamide]
EC50 [1, 3]: 0.05 to 0.2 µM

CC(C)C[C@H](NC(=O)C(=O)Nc1ccccc1F)C(=O)N[C@@H](C[C@@H]1CCNC1=O)C(=O)COc1ccnc(C(F)(F)F)n1 [Compound 788, N^1-(2-fluorophenyl)-N^2—((S)-4-methyl-1-oxo-1-(((S)-3-oxo-1-((S)-2-oxopyrrolidin-3-yl)-4-((2-(trifluoromethyl)pyrimidin-4-yl)oxy)butan-2-yl)amino)pentan-2-yl)oxalamide]
EC50 [1, 3]: 0.2 to 0.5 µM

CC(C)C[C@H](NC(=O)C1CC2(CC2)CO1)C(=O)N[C@@H](C[C@@H]1CCNC1=O)C(=O)COC(F)(F)F (stereo partly drawn) [Compound 789, N-((S)-4-methyl-1-oxo-1-(((S)-3-oxo-1-((S)-2-oxopyrrolidin-3-yl)-4-(trifluoromethoxy)butan-2-yl)amino)pentan-2-yl)-5-oxaspiro[2.4]heptane-6-carboxamide]
EC50 [1, 3]: < 0.05 µM

CCN(CCO)CCCC(C)Nc1ccnc2cc(Cl)ccc12 (stereo not shown) [hydroxychloroquine]
mortality of hospitalized COVID-19 patients [2]: failed to reduce mortality

Cc1cccc(C)c1OCC(=O)N[C@@H](Cc1ccccc1)[C@@H](O)C[C@H](Cc1ccccc1)NC(=O)[C@H](C(C)C)N1CCCNC1=O [lopinavir]
mortality of hospitalized COVID-19 patients [2]: failed to reduce mortality

COCC(=O)[C@H](C[C@@H]1CCNC1=O)NC(=O)[C@H](CC(C)C)NC(=O)c1cc2c(OC)cccc2[nH]1 [methyl ether of PF-00835231]
fold less active than PF-00835231 (COVID-2 M^pro protease): 3-5 fold

(S)-4-methyl-2-((l- methyl-1H-indole)-5- sulfonamido)-N-((S)- 3-oxo-1-((S)-2- oxopyrrolidin-3-yl)-4- (trifluoromethoxy)butan- 2-yl)pentanamide [Compound 463]
EC50 [1]: 0.2 to 0.5 µM
